Laboratory results as given in US8445246B2, “Flavin-binding glucose dehydrogenases” (Kikkoman Corporation, priority 2009, dated 2013).

Tests used:
[1] = system: MjGDH; assay: Inhibiting effect of 1,10-phenanthroline on MjGDH; format: biochemical, Mucor javanicus NISL0111
From the text: (§1) The inhibiting effect of […] on the activity of the flavin-binding GDH of the invention was examined in the following manner.

[2] = system: flavin-binding GDH of the invention; assay: Inhibiting effect of 1,10-phenanthroline; format: biochemical
From the text: as §1

[3] = system: MpGDH; assay: Inhibiting effect of 1,10-phenanthroline on MpGDH; format: biochemical, Mucor prainii NISL0103
From the text: as §1

[4] = system: McGDH; assay: Inhibiting effect of 1,10-phenanthroline on McGDH; format: biochemical, Mucor circinelloides f. circinelloides NISL0117
From the text: as §1

c1cnc2c(c1)ccc1cccnc12 [1,10-phenanthroline]
GDH inhibition rate (%) ([1]; 1,10-phenanthroline 1 mM): 3.27%
GDH inhibition rate (%) ([1]; 1,10-phenanthroline 5 mM): 13.1%
GDH inhibition rate (%) ([1]; 1,10-phenanthroline 10 mM): 23.5%
GDH inhibition rate (%) ([1]; 1,10-phenanthroline 25 mM): 64.7%
GDH inhibition rate (%) ([1]; 1,10-phenanthroline 50 mM): 88.9%
inhibiting effect ([2]; 1 mM 1,10-phenanthroline): 2-4%
inhibition rate ([2]; 5 mM 1,10-phenanthroline): about 10%
GDH inhibition rate (%) ([3]; 1,10-phenanthroline 1 mM): 3.72%
GDH inhibition rate (%) ([3]; 1,10-phenanthroline 5 mM): 10.1%
GDH inhibition rate (%) ([3]; 1,10-phenanthroline 10 mM): 23.9%
GDH inhibition rate (%) ([3]; 1,10-phenanthroline 25 mM): 44.1%
GDH inhibition rate (%) ([3]; 1,10-phenanthroline 50 mM): 68.6%
GDH inhibition rate (%) ([4]; 1,10-phenanthroline 1 mM): 1.95%
GDH inhibition rate (%) ([4]; 1,10-phenanthroline 5 mM): 8.23%
GDH inhibition rate (%) ([4]; 1,10-phenanthroline 10 mM): 12.8%
GDH inhibition rate (%) ([4]; 1,10-phenanthroline 25 mM): 36.2%
GDH inhibition rate (%) ([4]; 1,10-phenanthroline 50 mM): 68.5%
